Laboratory results reported in patent US20040209318A1, “Reagents and methods for the detection and quantification of vancomycin in bilogical fluids” (priority 1995, published 2004).

Molecular target: anti-vancomycin Fab fragment
Experiment: BIAcore solution competition, equilibrium dissociation constant
Format: binding, mouse
Settings: in solution, 20 nM Fab fragment; read-out: Equilibrium Dissociation Constant (KD)
Description: Biosensor surfaces were regenerated after each injection with successive 1 minute pulses of 6 M, 6M, and 1.5 M guanidine hydrochloride. Initial rates of binding of anti-vancomycin Fab fragment to the biosensor surface were measured over a 15 second window beginning 20 seconds postinjection. Data was evaluated by non-linear regression analysis using the solution affinity model built into BIAevaluation 3.0 software (BIAcore, Inc).
The binding affinities of several vancomycin analogs and tracers for anti-vancomycin Fab fragment were determined from solution competition experiments carried out on a BIAcore 2000. Initially, known concentrations of anti-vancomycin Fab fragment (0-22 nM) were injected over the aminoalkyl vancomycin biosensor surface. The initial rate of binding for each anti-vancomycin Fab fragment concentration was obtained by averaging the observed binding rate over a […] window beginning 20 seconds post injection. Data from the first 20 seconds of each sensorgram were omitted due to sample dispersion effects at the start of injections. A plot of initial binding rate versus concentration of anti-vancomycin Fab fragment was fit using a 4-parameter logistic (general model in BIAevaluation 3.0) providing a standard curve. […] A fixed concentration of anti-vancomycin Fab fragment (20 nM) was then mixed with twelve concentrations of each vancomycin analog or tracer and allowed to reach equilibrium. The equilibrium mixtures were individually injected over the aminoalkyl vancomycin biosensor surface, and the concentration of free anti-vancomycin Fab fragment remaining was quantitated by determination of the initial rate of binding to the biosensor surface as described above. A plot of free anti-vancomycin Fab fragment versus total concentration of added analog or tracer provides a competition curve. […] The data points represent the experimentally determined concentrations of free anti-vancomycin Fab fragment in equilibrium solutions at a given concentration of soluble analog or tracer. The curves represent the best nonlinear fit of the data using equation 1 (solution affinity model in BIAevaluation software) below: [formula]
where Fabτ is the concentration of free anti-vancomycin Fab fragment in equilibrium solutions, Fabτ is the total concentration of anti-vancomycin Fab fragment in solution (20 nM), A is the total concentration of added vancomycin analog or tracer, and KD is the equilibrium dissociation constant for the binding of the vancomycin analog or tracer to anti-vancomycin Fab fragment in solution.

Molecule | Kd [µM]
AglucoCDP [compound 11] | ≥ 50
CNC(CC(C)C)C(=O)NC1C(=O)NC(CC(N)=O)C(=O)NC2C(=O)NC3C(=O)NC(C(=O)NC(C(=O)O)c4cc(O)cc(O)c4-c4cc3ccc4O)C(O)c3ccc(c(Cl)c3)Oc3cc2cc(c3OC2OC(CO)C(O)C(O)C2OC2CC(C)(NC(=O)CCCN(C(=O)c3c4ccccc4[n+](CCCS(=O)(=O)[O-])c4ccccc34)S(=O)(=O)c3ccc(C)cc3)C(O)C(C)O2)Oc2ccc(cc2Cl)C1O (stereo not drawn) [compound 15] | 1.2 ± 0.1
Ring-2 dechloro CDP [compound 12] | 6
aglucovancomycin [compound 6] | 42
Crystalline degradation product (CDP) [compound 10] | 0.488 ± 0.034
CC(C)CC(C(=O)NC1C(=O)NC(CC(N)=O)C(=O)NC2C(=O)NC3C(=O)NC(C(=O)NC(C(=O)O)c4cc(O)cc(O)c4-c4cc3ccc4O)C(O)c3ccc(c(Cl)c3)Oc3cc2cc(c3OC2OC(CO)C(O)C(O)C2OC2CC(C)(N)C(O)C(C)O2)Oc2ccc(cc2Cl)C1O)N(C)C(=O)CCCCC1SCC2NC(=O)NC21 (stereo not drawn) [compound 16] | ≤ 0.0002
